Calls of active or inactive are those of the source.
What was measured:
Aminopeptidase N = biological target: T1, Aminopeptidase N (Plasmodium falciparum FcB1/Columbia, UniProt O96935); assay: P. falciparum M1AAP inhibitors, biochemical, fluorogenic H-Leu-NHMec substrate, 1536-well (AID 1445); set-up: species or system Plasmodium falciparum 3D7, 3D7
T1 sequence (O96935 whole entry): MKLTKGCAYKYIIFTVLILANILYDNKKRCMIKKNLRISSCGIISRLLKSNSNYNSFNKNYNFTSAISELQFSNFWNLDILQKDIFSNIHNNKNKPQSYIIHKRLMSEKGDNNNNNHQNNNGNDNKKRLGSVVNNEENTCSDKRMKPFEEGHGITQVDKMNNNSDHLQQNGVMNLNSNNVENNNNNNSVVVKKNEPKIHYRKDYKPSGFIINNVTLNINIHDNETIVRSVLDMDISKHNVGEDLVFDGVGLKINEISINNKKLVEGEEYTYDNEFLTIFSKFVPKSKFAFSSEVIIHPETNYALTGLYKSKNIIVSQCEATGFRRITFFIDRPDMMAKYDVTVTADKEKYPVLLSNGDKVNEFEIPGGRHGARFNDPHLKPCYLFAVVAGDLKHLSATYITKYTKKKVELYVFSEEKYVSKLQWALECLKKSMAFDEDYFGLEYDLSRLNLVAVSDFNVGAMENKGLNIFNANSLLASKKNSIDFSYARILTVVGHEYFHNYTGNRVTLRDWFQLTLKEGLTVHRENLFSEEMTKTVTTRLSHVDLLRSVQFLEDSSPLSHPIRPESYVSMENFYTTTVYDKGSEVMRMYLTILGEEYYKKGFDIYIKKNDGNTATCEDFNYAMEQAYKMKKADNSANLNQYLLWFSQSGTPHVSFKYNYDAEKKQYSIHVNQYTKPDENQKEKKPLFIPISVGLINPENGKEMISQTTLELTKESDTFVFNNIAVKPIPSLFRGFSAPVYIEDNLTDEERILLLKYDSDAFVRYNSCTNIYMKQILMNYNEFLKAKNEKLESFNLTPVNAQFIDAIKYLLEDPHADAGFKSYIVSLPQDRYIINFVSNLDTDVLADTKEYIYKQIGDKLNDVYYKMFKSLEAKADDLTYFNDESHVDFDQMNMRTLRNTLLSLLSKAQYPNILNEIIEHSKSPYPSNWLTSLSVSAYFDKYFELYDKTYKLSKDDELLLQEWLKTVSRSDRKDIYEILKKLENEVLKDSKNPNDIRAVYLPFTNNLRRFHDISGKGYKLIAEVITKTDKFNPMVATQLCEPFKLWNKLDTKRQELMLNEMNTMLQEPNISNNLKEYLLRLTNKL

[1] = Luminescence Cell-Based Dose Retest to Confirm Inhibitors of Cancer Stem Cells. [Related pubchem assays (depositor defined):AID2717, AID2721]; format: functional; settings: Homo sapiens
Fatty acid synthase [2] = biological target: T2, Fatty acid synthase (Homo sapiens, UniProt P49327); assay: FAS thioesterase domain inhibitors, dose response, biochemical, endpoint fluorescence intensity, uHTS hits (AID 624327); format: functional;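 note: fluorescence from hydrolysis of an O-methyl fluorescein acyl ester substrate by the enzyme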
[3] = biological target: Voltage-dependent T-type calcium channel subunit alpha-1H (Homo sapiens, UniProt O95180); format: functional;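 note: channel activity triggered by adding a high calcium stimulation buffer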
Fatty acid synthase [4] = biological target: T2, Fatty acid synthase; assay: FAS thioesterase domain inhibitors, dose response, biochemical, kinetic fluorescence intensity (AID 624326); format: functional;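 note: rate of fluorescence rise from hydrolysis of a fluorogenic O-methyl fluorescein ester substrate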
[5] = microbe, parasite or virus in culture; format: functional; settings: Mycobacterium tuberculosis
[6] = Vero E6 cell cytotoxicity, dose response, cytotoxicity control for non-replicating M. tuberculosis project, secondary assay (AID 492998); format: functional, VeroE6; settings: Vero C1008
cells = format: functional
[7] = THP-1 cell cytotoxicity, dose response, cytotoxicity control for non-replicating M. tuberculosis project (AID 489025); format: functional
[8] = HepG2 cell cytotoxicity, dose response, cytotoxicity control for non-replicating M. tuberculosis project (AID 489018); format: functional; settings: Mycobacterium tuberculosis
Cytochrome P450 2C9 = Cytochrome P450 2C9 (Homo sapiens, UniProt P11712)
Cytochrome P450 2C19 = Cytochrome P450 2C19 (Homo sapiens, UniProt P33261); assay: Cytochrome panel assay with activity outcomes. Panel member name: p450-cyp2c19 Compounds with AC50 equal or less than 10 uM are considered active; format: functional
Cytochrome P450 1A2 = biological target: T3, Cytochrome P450 1A2 (Homo sapiens, UniProt P05177);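 note: PubChem cytochrome P450 panel assay, CYP1A2 panel member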
T3 sequence (P05177 whole entry): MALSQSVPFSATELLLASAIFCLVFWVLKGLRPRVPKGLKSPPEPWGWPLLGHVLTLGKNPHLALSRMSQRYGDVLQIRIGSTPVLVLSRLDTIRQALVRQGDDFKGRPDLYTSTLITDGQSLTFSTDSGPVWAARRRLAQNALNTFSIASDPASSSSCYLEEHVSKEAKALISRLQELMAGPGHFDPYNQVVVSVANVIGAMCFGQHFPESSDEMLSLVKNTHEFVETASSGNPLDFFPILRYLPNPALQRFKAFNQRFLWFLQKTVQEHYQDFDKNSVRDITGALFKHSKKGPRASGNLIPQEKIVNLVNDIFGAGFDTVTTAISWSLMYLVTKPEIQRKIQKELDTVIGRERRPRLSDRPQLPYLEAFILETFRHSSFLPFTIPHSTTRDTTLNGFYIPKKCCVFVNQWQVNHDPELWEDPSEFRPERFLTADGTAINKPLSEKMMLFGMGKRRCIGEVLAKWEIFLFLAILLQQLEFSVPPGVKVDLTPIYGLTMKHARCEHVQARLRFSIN

Streptococcus = assay: Group A Streptococcus viability loss, dose response, counter-screen for streptokinase expression inhibitor project, luminescence, BacTiterGlo (AID 1915); format: functional, organism-based;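 note: potency for reduction of bacterial viability or growth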
[9] = tested on: Streptococcus sp. 'group A'; assay: growth inhibition of control SK(-) GAS strain, dose response, counter-screen for streptokinase expression inhibitor project, luminescence, kanamycin, BacTiterGlo, confirmation (AID 1900); format: functional, organism-based
Streptokinase A = biological target: T4, Streptokinase A (Streptococcus pyogenes serotype M1, UniProt P10520); assay: S. pyogenes streptokinase expression inhibitors, potency, dose response, plasminogen activation absorbance, OD405 (AID 1914); format: functional, Streptococcus pyogenes M1 GAS;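 note: secreted streptokinase activity via plasminogen activation per viability signal from cell pellet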
T4 sequence (P10520 whole entry): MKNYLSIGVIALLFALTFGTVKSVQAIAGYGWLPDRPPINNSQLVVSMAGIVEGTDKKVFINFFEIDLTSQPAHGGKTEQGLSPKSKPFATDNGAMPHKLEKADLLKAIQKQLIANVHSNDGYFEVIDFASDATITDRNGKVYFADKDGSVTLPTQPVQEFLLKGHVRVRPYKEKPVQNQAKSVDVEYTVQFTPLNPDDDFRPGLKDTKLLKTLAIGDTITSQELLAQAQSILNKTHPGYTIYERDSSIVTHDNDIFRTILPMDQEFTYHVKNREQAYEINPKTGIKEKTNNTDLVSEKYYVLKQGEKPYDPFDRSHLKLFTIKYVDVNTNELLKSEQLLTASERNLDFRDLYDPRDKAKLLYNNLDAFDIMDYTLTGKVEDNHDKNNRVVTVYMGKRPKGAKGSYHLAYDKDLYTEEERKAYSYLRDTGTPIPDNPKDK

Sequence of Cytochrome P450 2C9 (P11712 whole entry): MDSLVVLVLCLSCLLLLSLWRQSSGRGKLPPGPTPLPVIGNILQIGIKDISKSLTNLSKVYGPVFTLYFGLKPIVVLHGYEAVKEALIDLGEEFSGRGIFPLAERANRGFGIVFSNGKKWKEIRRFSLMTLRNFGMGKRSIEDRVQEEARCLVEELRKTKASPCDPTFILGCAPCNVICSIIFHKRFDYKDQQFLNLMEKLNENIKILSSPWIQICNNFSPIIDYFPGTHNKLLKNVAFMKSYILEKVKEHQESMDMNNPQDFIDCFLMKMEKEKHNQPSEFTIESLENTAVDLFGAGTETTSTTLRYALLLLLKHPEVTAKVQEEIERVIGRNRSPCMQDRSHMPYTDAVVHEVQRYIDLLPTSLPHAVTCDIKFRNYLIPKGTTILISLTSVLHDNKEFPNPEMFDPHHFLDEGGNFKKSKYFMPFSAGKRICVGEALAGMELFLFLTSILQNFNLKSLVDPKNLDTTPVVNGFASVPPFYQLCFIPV
T2 sequence (P49327 whole entry, the tested form may be a part): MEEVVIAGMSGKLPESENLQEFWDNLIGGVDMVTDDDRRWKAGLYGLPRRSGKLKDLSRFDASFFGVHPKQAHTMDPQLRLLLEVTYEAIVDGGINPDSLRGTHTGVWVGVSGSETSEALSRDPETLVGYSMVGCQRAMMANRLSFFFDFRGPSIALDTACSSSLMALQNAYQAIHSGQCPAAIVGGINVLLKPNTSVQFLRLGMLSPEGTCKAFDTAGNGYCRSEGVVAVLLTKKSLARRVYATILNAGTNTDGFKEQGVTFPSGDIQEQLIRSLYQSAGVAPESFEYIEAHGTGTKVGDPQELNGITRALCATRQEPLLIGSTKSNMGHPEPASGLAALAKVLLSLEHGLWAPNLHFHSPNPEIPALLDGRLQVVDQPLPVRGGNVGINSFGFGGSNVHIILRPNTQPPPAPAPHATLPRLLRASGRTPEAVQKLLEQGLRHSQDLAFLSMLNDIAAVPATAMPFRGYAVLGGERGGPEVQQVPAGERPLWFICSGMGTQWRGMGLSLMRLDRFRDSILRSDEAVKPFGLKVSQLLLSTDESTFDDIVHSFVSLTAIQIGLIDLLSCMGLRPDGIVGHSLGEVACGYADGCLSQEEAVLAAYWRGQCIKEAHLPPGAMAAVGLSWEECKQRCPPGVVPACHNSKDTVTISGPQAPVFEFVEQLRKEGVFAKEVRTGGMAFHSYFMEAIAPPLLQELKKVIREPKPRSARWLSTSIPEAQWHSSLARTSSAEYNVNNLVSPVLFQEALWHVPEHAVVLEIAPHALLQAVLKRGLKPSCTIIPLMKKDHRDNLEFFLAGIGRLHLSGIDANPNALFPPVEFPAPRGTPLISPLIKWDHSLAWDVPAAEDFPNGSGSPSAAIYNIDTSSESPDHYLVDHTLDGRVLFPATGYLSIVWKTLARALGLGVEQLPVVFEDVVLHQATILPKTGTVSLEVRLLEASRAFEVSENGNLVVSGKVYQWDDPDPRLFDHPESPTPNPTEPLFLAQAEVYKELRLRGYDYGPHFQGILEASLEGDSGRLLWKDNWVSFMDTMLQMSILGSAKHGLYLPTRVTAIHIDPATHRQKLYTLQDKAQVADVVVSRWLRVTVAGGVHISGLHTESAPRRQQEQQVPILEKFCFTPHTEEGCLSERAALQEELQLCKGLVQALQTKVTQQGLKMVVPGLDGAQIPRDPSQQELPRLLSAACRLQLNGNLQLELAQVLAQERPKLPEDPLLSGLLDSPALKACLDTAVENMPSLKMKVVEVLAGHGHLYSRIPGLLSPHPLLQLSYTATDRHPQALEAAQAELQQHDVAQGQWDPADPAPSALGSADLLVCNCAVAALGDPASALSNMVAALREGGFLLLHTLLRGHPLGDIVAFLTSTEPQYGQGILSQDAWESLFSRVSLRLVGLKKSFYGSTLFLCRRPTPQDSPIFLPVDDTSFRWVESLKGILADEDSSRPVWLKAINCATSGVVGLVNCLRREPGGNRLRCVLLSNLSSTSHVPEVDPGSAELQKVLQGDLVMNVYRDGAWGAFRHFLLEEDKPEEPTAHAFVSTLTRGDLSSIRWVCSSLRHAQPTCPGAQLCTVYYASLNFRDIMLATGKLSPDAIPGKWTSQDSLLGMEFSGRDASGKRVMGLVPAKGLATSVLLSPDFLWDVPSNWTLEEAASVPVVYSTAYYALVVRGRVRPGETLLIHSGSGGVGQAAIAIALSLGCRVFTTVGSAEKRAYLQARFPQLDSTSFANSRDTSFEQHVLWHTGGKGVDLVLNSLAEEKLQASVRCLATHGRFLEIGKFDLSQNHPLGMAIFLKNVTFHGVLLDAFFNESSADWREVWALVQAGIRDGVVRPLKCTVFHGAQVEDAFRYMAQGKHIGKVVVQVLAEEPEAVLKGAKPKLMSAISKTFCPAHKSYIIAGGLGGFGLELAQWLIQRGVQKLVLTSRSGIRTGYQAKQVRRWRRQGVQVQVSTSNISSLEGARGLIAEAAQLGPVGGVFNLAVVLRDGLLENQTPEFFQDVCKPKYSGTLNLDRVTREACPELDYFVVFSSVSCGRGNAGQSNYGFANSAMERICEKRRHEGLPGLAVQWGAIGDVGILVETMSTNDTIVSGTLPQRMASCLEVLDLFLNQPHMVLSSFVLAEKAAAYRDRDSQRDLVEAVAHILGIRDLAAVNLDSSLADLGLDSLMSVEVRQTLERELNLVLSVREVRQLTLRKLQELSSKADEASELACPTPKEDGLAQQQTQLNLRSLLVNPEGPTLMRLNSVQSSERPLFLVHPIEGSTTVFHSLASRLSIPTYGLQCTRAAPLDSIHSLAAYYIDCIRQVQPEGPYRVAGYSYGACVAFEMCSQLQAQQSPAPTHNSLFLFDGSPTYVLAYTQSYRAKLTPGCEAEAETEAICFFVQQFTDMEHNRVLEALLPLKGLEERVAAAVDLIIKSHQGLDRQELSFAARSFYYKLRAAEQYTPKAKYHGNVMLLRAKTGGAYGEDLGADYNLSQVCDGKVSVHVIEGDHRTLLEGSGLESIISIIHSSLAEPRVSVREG
Sequence of Cytochrome P450 2C19 (P33261 whole entry): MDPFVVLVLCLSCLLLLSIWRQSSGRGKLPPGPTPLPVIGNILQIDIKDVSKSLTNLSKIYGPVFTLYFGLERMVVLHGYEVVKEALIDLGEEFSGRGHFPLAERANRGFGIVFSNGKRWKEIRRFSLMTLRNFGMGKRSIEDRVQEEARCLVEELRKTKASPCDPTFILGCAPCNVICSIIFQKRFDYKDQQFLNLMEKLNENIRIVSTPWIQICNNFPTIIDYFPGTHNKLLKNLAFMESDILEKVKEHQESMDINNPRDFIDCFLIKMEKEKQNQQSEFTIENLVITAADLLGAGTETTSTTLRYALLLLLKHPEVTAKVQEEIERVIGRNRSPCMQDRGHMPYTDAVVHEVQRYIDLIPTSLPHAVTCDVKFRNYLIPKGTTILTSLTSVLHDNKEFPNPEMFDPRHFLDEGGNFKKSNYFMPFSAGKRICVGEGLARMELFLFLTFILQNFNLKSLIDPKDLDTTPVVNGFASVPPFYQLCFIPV

With `CCC1=NN2C(=N)/C(=C/c3c(C)nn(-c4ccccc4)c3Cl)C(=O)N=C2S1` the IC50 (Aminopeptidase N) was 46.1 µM (active) and the AC50 [1] was 78.8 µM (active).

With `C=CCn1cc(C(=O)NCc2ccco2)c(=O)c2cc(S(=O)(=O)N3CCCCCC3)ccc21` the IC50 (Fatty acid synthase [2]) was 6.69 µM (active), the EC50 [3] was 6.32 µM (active) and the IC50 (Fatty acid synthase [4]) was 7.26 µM (active).

With `Cc1ccc(-c2n[nH]c3c2C(c2cccc(O)c2)N(c2ccc(C(=O)O)cc2)C3=O)cc1` (stereo not given) the IC50 (Aminopeptidase N) was 36.6 µM (active).

In the case of `O=C(CSc1nnc(-c2ccc(Cl)cc2)n1Cc1ccco1)NCc1ccc2c(c1)OCO2`, the EC50 [3] is reported as 1.11 µM (active).

In the case of `CC(C)NS(=O)(=O)c1ccc(CCC(=O)NCc2ccc3c(c2)OCO3)cc1`, the IC50 (Aminopeptidase N) is reported as 33.6 µM (active).

For `CCn1c(NC(=O)c2nn(C)cc2Br)nc2ccccc21`, the CC50 [5] was > 40 µM (active), the CC50 [6] was > 20 µM (active) and the IC50 (cells) was 5.5 µM (active). For the same molecule, the CC50 [7] was > 40 µM (active) and the CC50 [8] was > 20 µM (active).

With `Nc1nc(S)nc(O)c1/N=N\c1c(Br)cc(S(N)(=O)=O)cc1Br` the AC50 (Cytochrome P450 2C9) was “inconclusive”, the AC50 (Cytochrome P450 2C19) was “inconclusive” and the AC50 (Cytochrome P450 1A2) was 3.16 µM (inconclusive).

For `CCC(=O)Nc1cc2c(cc1C(=O)c1ccccc1)OCCO2`, the AC50 (Cytochrome P450 2C9) was “inconclusive”.

In the case of `Cc1cc(NC(=O)c2sccc2C)n(-c2nc3ccccc3[nH]2)n1`, the CC50 [5] is reported as 28.5 µM (active), the CC50 [6] is reported as 12.8 µM (active) and the IC50 (cells) is reported as 4.09 µM (active). The EC50 (Streptococcus) was 5.49 µM (active), the CC50 [7] was > 40 µM (active) and the EC50 [9] was 3.9 µM (active). For the same molecule, the EC50 (Streptokinase A) was > 150 µM (not active) and the CC50 [8] was > 20 µM (active).
